SMILES strings stand for the structures. A value given as a limit tells only on which side of the number the result lay.

This assay relates to recombinant rabies virus 1088 strain expressing Gaussia Luciferase (GLuc) (1088/GLuc). It is filed as cell-based. The following applies: read-out: Anti-rabies activity.

Take `CCCCCCNC(=O)C12NCC3CC1CN(Cc1ccccc1)C2C3Cc1ccccc1` (stereo not drawn) [IB-562]: the IC50 lay in the range of 10 to 30 µM.

Regarding `O=C(NCc1ccc(F)cc1)C12NCC3CC1CN(Cc1ccccc1)C2C3CCc1ccccc1` (stereo not drawn) [IB-568], the IC50 was in the range of 10 to 30 µM.

Regarding `CC(C)CCNC(=O)C12NCC3CC1CN(Cc1ccc(O)cc1)C2C3Cc1ccccc1` (stereo not drawn) [IB-574], the IC50 was in the range of 10 to 30 µM.

As for `CC(C)CNC(=O)C12NCC3CC1CN(CCC(=O)O)C2C3Cc1cccc2ccccc12` (stereo not drawn) [IB-575], the IC50 is 10 to 30 µM.

As to `CC(C)CCN1CC2CC3CNC2(C(=O)NCc2ccc(O)cc2)C1C3CCc1ccccc1` (stereo not drawn) [IB-576], the IC50 lay within 10 to 30 µM.

Regarding `CC(C)CCN1CC2CC3CNC2(C(=O)NCc2ccc(O)cc2)C1C3Cc1ccccc1` (stereo not drawn) [IB-577], the IC50 lay within 10 to 30 µM.

With `CC(C)CC1C2CNC3(C(=O)NCc4ccc(O)cc4)C(C2)CN(CC2CCCCC2)C13` (stereo not drawn) [IB-581], the IC50 lay in the range of 10 to 30 µM.

`CC(C)CCC1C2CNC3(C(=O)NCc4ccc(O)cc4)C(C2)CN(Cc2ccc(F)cc2)C13` (stereo not drawn) [IB-582]: the IC50 is 10 to 30 µM.

Regarding `O=C(NCc1ccc(O)cc1)C12NCC3CC1CN(Cc1ccc(F)cc1)C2C3Cc1ccccc1` (stereo not drawn) [IB-583], the IC50 lay within 10 to 30 µM.

For the compound `CC(C)CC1C2CNC3(C(=O)NCc4cccc5ccccc45)C(C2)CN(CCO)C13` (stereo not drawn) [IB-585], the IC50 was in the range of 10 to 30 µM.

On to `O=C(NCCO)C12NCC3CC1CN(Cc1cccc4ccccc14)C2C3Cc1ccccc1` (stereo not drawn) [IB-588], for which the IC50 is less than 5 µM.

In the case of `O=C(NCCO)[C@]12NC[C@H]3C[C@H]1CN(CCc1ccccc1)[C@H]2[C@@H]3Cc1cccc2ccccc12` [IB-593], the IC50 lay in the range of 10 to 30 µM.

With `O=C(NCCO)[C@]12NC[C@H]3C[C@H]1CN(Cc1ccccc1)[C@H]2[C@@H]3Cc1cccc2ccccc12` [IB-602], the IC50 lay within 10 to 30 µM.

Take `O=C(O)CCNC(=O)[C@]12NC[C@H]3C[C@H]1CN(CCO)[C@H]2[C@@H]3Cc1cccc2ccccc12` [IB-610]: the IC50 fell in the range of 10 to 30 µM.

As to `CC(C)CCN1C[C@@H]2C[C@@H]3CN[C@]2(C(=O)NCCC(=O)O)[C@@H]1[C@@H]3CC(C)C` [IB-611], the IC50 was 10 to 30 µM.

In the case of `CC(C)CC[C@@H]1[C@H]2CN[C@@]3(C(=O)NCCC(=O)O)[C@@H](C2)CN(CC2CCCCC2)[C@@H]13` [IB-613], the IC50 lay within 10 to 30 µM.

`O=C(O)CCNC(=O)[C@]12NC[C@H]3C[C@H]1CN(CC1CCCCC1)[C@H]2[C@@H]3Cc1cccc2ccccc12` [IB-614]: the IC50 is 10 to 30 µM.

Turning to `O=C(O)CCNC(=O)[C@]12NC[C@H]3C[C@H]1CN(Cc1ccccc1)[C@H]2[C@@H]3Cc1cccc2ccccc12` [IB-616], the IC50 is 10 to 30 µM.

In the case of `O=C(NCc1ccccc1)[C@]12NC[C@H]3C[C@H]1CN(CCO)[C@H]2[C@@H]3CCc1ccccc1` [IB-618], the IC50 was less than 5 µM.

As for `O=C(NCc1ccccc1)[C@]12NC[C@H]3C[C@H]1CN(CCO)[C@H]2[C@@H]3Cc1ccccc1` [IB-619], the IC50 was 10 to 30 µM.

Take `CC(C)CNC(=O)[C@]12NC[C@H]3C[C@H]1CN(CCO)[C@H]2[C@@H]3Cc1cccc2ccccc12` [IB-621]: the IC50 is less than 5 µM.

Regarding `CC(C)CNC(=O)[C@]12NC[C@H]3C[C@H]1CN(CCc1ccccc1)[C@H]2[C@@H]3Cc1ccc(O)cc1` [IB-625], the IC50 lay in the range of 10 to 30 µM.

For `CC(C)CNC(=O)[C@]12NC[C@H]3C[C@H]1CN(Cc1ccc(F)cc1)[C@H]2[C@@H]3CC(C)C` [IB-630], the IC50 was less than 5 µM.

As to `CC(C)CNC(=O)[C@]12NC[C@H]3C[C@H]1CN(Cc1ccc(F)cc1)[C@H]2[C@@H]3Cc1ccc(O)cc1` [IB-631], the IC50 lay within 10 to 30 µM.

As for `CC(C)CNC(=O)[C@]12NC[C@H]3C[C@H]1CN(CC(C)C)[C@H]2[C@@H]3CCc1ccccc1` [IB-633], the IC50 is less than 5 µM.

Take `CC(C)CCN1C[C@@H]2C[C@@H]3CN[C@]2(C(=O)NCCC(N)=O)[C@@H]1[C@@H]3CCc1ccccc1` [IB-636]: the IC50 lay in the range of 10 to 30 µM.

As to `NC(=O)CCNC(=O)[C@]12NC[C@H]3C[C@H]1CN(CC1CCCCC1)[C@H]2[C@@H]3Cc1ccccc1` [IB-637], the IC50 is less than 5 µM.

In the case of `O=C(NCCO)[C@]12NC[C@H]3C[C@H]1CN(CCc1ccccc1)[C@H]2[C@@H]3Cc1ccccc1` [IB-640], the IC50 was less than 5 µM.

As for `CC(C)C[C@@H]1[C@H]2CN[C@@]3(C(=O)NCCO)[C@@H](C2)CN(CCc2ccccc2)[C@@H]13` [IB-641], the IC50 is 10 to 30 µM.

Take `O=C(NCc1ccc(F)cc1)[C@]12NC[C@H]3C[C@H]1CN(CCc1ccccc1)[C@H]2[C@@H]3Cc1ccc(O)cc1` [IB-642]: the IC50 was less than 5 µM.

For `CC(C)C[C@@H]1[C@H]2CN[C@@]3(C(=O)NCCO)[C@@H](C2)CN(Cc2cccc4ccccc24)[C@@H]13` [IB-643], the IC50 fell in the range of 10 to 30 µM.

On to `CC(C)C[C@@H]1[C@H]2CN[C@@]3(C(=O)NCCO)[C@@H](C2)CN(CC2CCCCC2)[C@@H]13` [IB-646], for which the IC50 lay within 10 to 30 µM.

Consider `CC(C)CCNC(=O)[C@]12NC[C@H]3C[C@H]1CN(CC1CCCCC1)[C@H]2[C@@H]3Cc1ccc(O)cc1` [IB-648], for which the IC50 fell in the range of 10 to 30 µM.

Consider `O=C(NCCO)[C@]12NC[C@H]3C[C@H]1CN(Cc1ccc(F)cc1)[C@H]2[C@@H]3Cc1ccccc1` [IB-649], for which the IC50 was in the range of 10 to 30 µM.

As to `CC(C)C[C@@H]1[C@H]2CN[C@@]3(C(=O)NCCO)[C@@H](C2)CN(Cc2ccc(F)cc2)[C@@H]13` [IB-650], the IC50 is 10 to 30 µM.

For the compound `CCCCCCNC(=O)[C@]12NC[C@H]3C[C@H]1CN(Cc1ccc(F)cc1)[C@H]2[C@@H]3Cc1ccc(O)cc1` [IB-656], the IC50 is less than 5 µM.

As to `CC(C)CC[C@@H]1[C@H]2CN[C@@]3(C(=O)NCc4ccc(F)cc4)[C@@H](C2)CN(CCO)[C@@H]13` [IB-657], the IC50 is 10 to 30 µM.

For `CC(C)CCN1C[C@@H]2C[C@@H]3CN[C@]2(C(=O)NCCO)[C@@H]1[C@@H]3CCc1ccccc1` [IB-658], the IC50 is 10 to 30 µM.

Take `CC(C)CCN1C[C@@H]2C[C@@H]3CN[C@]2(C(=O)NCCO)[C@@H]1[C@@H]3Cc1cccc2ccccc12` [IB-659]: the IC50 is less than 5 µM.

As for `O=C(NCCO)[C@]12NC[C@H]3C[C@H]1CN(CC1CCCCC1)[C@H]2[C@@H]3CCc1ccccc1` [IB-663], the IC50 is less than 5 µM.

As for `CC(C)CC[C@@H]1[C@H]2CN[C@@]3(C(=O)NCCO)[C@@H](C2)CN(Cc2ccc(F)cc2)[C@@H]13` [IB-668], the IC50 was less than 5 µM.

With `O=C(NCCO)[C@]12NC[C@H]3C[C@H]1CN(Cc1ccc(F)cc1)[C@H]2[C@@H]3CCc1ccccc1` [IB-669], the IC50 was in the range of 10 to 30 µM.

Regarding `O=C(NCCO)[C@]12NC[C@H]3C[C@H]1CN(Cc1ccccc1)[C@H]2[C@@H]3Cc1ccccc1` [IB-676], the IC50 fell in the range of 10 to 30 µM.

For `CC(C)CCNC(=O)[C@]12NC[C@H]3C[C@H]1CN(Cc1ccccc1)[C@H]2[C@@H]3Cc1ccc(O)cc1` [IB-678], the IC50 was less than 5 µM.

For the compound `CC(C)CC[C@@H]1[C@H]2CN[C@@]3(C(=O)NCCO)[C@@H](C2)CN(Cc2ccccc2)[C@@H]13` [IB-680], the IC50 lay within 10 to 30 µM.

With `O=C(NCCO)[C@]12NC[C@H]3C[C@H]1CN(Cc1ccccc1)[C@H]2[C@@H]3CCc1ccccc1` [IB-681], the IC50 fell in the range of 10 to 30 µM.

In the case of `CC(C)CCNC(=O)[C@]12NC[C@H]3C[C@H]1CN(CC(C)C)[C@H]2[C@@H]3Cc1ccc(O)cc1` [IB-684], the IC50 lay within 10 to 30 µM.

For the compound `CC(C)CN1C[C@@H]2C[C@@H]3CN[C@]2(C(=O)NCCO)[C@@H]1[C@@H]3Cc1cccc2ccccc12` [IB-687], the IC50 lay within 10 to 30 µM.

In the case of `CC(C)CCNC(=O)[C@]12NC[C@H]3C[C@H]1CN(CC(C)C)[C@H]2[C@@H]3CCc1ccccc1` [IB-688], the IC50 was less than 5 µM.

As to `CC(C)CC[C@@H]1[C@H]2CN[C@@]3(C(=O)NCc4ccccc4)[C@@H](C2)CN(CCC(=O)O)[C@@H]13` [IB-694], the IC50 lay within 10 to 30 µM.

On to `CC(C)CCN1C[C@@H]2C[C@@H]3CN[C@]2(C(=O)NCCC(N)=O)[C@@H]1[C@@H]3Cc1cccc2ccccc12` [IB-703], for which the IC50 is less than 5 µM.

Take `NC(=O)CCNC(=O)[C@]12NC[C@H]3C[C@H]1CN(CCc1ccccc1)[C@H]2[C@@H]3Cc1ccccc1` [IB-707]: the IC50 is less than 5 µM.

With `CC(C)C[C@@H]1[C@H]2CN[C@@]3(C(=O)NCCC(N)=O)[C@@H](C2)CN(CCc2ccccc2)[C@@H]13` [IB-708], the IC50 is less than 5 µM.

As for `NC(=O)CCNC(=O)[C@]12NC[C@H]3C[C@H]1CN(CC1CCCCC1)[C@H]2[C@@H]3CCc1ccccc1` [IB-710], the IC50 was less than 5 µM.

For `NC(=O)CCNC(=O)[C@]12NC[C@H]3C[C@H]1CN(Cc1ccc(F)cc1)[C@H]2[C@@H]3Cc1ccccc1` [IB-712], the IC50 was less than 5 µM.

As for `CC(C)CCNC(=O)[C@]12NC[C@H]3C[C@H]1CN(CCO)[C@H]2[C@@H]3Cc1ccccc1` [IB-714], the IC50 is less than 5 µM.

As to `CC(C)C[C@@H]1[C@H]2CN[C@@]3(C(=O)NCCc4ccccc4)[C@@H](C2)CN(Cc2ccc(F)cc2)[C@@H]13` [IB-725], the IC50 was less than 5 µM.

In the case of `CC(C)CCNC(=O)[C@]12NC[C@H]3C[C@H]1CN(CCO)[C@H]2[C@@H]3Cc1cccc2ccccc12` [IB-727], the IC50 was less than 5 µM.

As to `NC(=O)CCNC(=O)[C@]12NC[C@H]3C[C@H]1CN(Cc1ccccc1)[C@H]2[C@@H]3Cc1ccccc1` [IB-734], the IC50 lay within 10 to 30 µM.

Take `CC(C)CN1C[C@@H]2C[C@@H]3CN[C@]2(C(=O)NCCC(N)=O)[C@@H]1[C@@H]3Cc1cccc2ccccc12` [IB-737]: the IC50 was 10 to 30 µM.

With `CC(C)CCNC(=O)[C@]12NC[C@H]3C[C@H]1CN(Cc1ccc(O)cc1)[C@H]2[C@@H]3CC(C)C` [IB-739], the IC50 was in the range of 10 to 30 µM.

As for `NC(=O)CCNC(=O)[C@]12NC[C@H]3C[C@H]1CN(Cc1ccc(O)cc1)[C@H]2[C@@H]3Cc1cccc2ccccc12` [IB-743], the IC50 was less than 5 µM.

Take `CC(C)CCN1C[C@@H]2C[C@@H]3CN[C@]2(C(=O)NCc2ccccc2)[C@@H]1[C@@H]3Cc1ccc(O)cc1` [IB-749]: the IC50 fell in the range of 10 to 30 µM.

For the compound `CC(C)CCN1C[C@@H]2C[C@@H]3CN[C@]2(C(=O)NCC(C)C)[C@@H]1[C@@H]3CC(C)C` [IB-753], the IC50 is less than 5 µM.

As to `CC(C)C[C@@H]1[C@H]2CN[C@@]3(C(=O)NCc4ccccc4)[C@@H](C2)CN(CCc2ccccc2)[C@@H]13` [IB-757], the IC50 was less than 5 µM.

Turning to `CC(C)CNC(=O)[C@]12NC[C@H]3C[C@H]1CN(CCc1ccccc1)[C@H]2[C@@H]3Cc1ccccc1` [IB-759], the IC50 was less than 5 µM.

These data come from patent publication US11780841B2, “3,6-methano-1H-pyrrolo[3,2-b]pyridine and 3,6-methano-1H-pyrrolo[3,2-c]pyridine compounds and medicaments using same” (priority 2018, dated 2023).
